Source: US7678884B2, “Biologically active peptide and agent containing the same” (Seikagaku Corporation, priority 2003, dated 2010)
Ends that are not written are not given here.

How the values were obtained:
[1] = system: Human-derived Periodontal Ligament Cells (PDL Cells); assay: Cell growth of PDL cells (cell number by Coulter counter); type: cell-based; settings: peptide added at various concentrations to DMEM containing 2% FBS; counted on Days 4 and 6; versus control medium (FIG. 1, FIG. 2)
Source text: PDL cells were isolated from a healthy premolar carefully extracted from a patient who visited a hospital to extract teeth for orthodontic treatment so that periodontal ligament should not be damaged as far as possible, and cultured. The extracted tooth was washed with sterilized physiological saline and phosphate-buffered saline (PBS, Nissui), and then periodontal ligament existing in ⅓ of the tooth root at the center was scraped off with a sharp knife. The pieces of periodontal ligament were transferred to a plastic plate and minced into small fragments using a round-blade knife. Tissue fragments were left standing in a plate having a diameter of 35 mm (FALCON) and cultured in Dulbecco's modified Eagle medium (DMEM, Nissui) containing antibiotics (100 U/ml of penicillin G, 100 μg/ml of streptomycin and 250 μg/ml of gentamicin) and 10% fetal bovine serum (FBS, EQUITECH-BIO) at 37° C. under 5% CO2. […]
The PDL cells prepared in (1) were inoculated on a 24-well culture plate (FALCON) at a ratio of 5×10^3 cells/well. […] On Days 4 and 6, the cells were separated and dispersed by using PBS containing 0.08% trypsin and 0.04% ethylenediaminetetraacetic acid (EDTA), and cell number was counted by using a Coulter counter (COULTER Z1, Coulter Electronics). […]

PDL cells [2] = assay: Cell differentiation of PDL cells (alkaline phosphatase activity, Bessey-Lowry method); type: cell-based, human; settings: peptide at various concentrations, 2% FBS medium; one week after confluent state; versus control (FIG. 4)
Source text: PDL cells were isolated from a healthy premolar carefully extracted from a patient who visited a hospital to extract teeth for orthodontic treatment so that periodontal ligament should not be damaged as far as possible, and cultured. The extracted tooth was washed with sterilized physiological saline and phosphate-buffered saline (PBS, Nissui), and then periodontal ligament existing in ⅓ of the tooth root at the center was scraped off with a sharp knife. The pieces of periodontal ligament were transferred to a plastic plate and minced into small fragments using a round-blade knife. Tissue fragments were left standing in a plate having a diameter of 35 mm (FALCON) and cultured in Dulbecco's modified Eagle medium (DMEM, Nissui) containing antibiotics (100 U/ml of penicillin G, 100 μg/ml of streptomycin and 250 μg/ml of gentamicin) and 10% fetal bovine serum (FBS, EQUITECH-BIO) at 37° C. under 5% CO2. Then, cells released from the periodontal ligament tissue fragments were subcultured under the same conditions, and the 3rd to 5th generation cells were used for experiments. • (ii) Mouse-derived Osteoblasts
As an index of cell differentiation, alkaline phosphatase (ALP) activity of cells was determined. Cells were inoculated in a 24-well culture plate at a ratio of 5×10^3 cells/well, added with the peptide (a) at various concentrations and cultured in DMEM or αMEM containing 2% FBS. One week after the time point when the cells reached a confluent state, ALP activity was determined by the following enzymochemical method (Bessey-Lowry method, Bessey O A, Lowry O H and Brock M J, A method for the rapid determination of alkaline phosphatase with five cubic millimeter of serum, J. Biol. Chem., 164:321-329, 1946).
The cultured cells were washed with PBS and then disrupted in 10 mM Tris-HCl buffer (pH 7.4, 500 μl) for 40 seconds by using an ultrasonic homogenizer (Handy Sonic model UR-20P, Tomy Seiko) and stirred. Then, 25 μl of this sample liquid was added to 125 μl of ALP buffer (0.1 M carbonate buffer, pH 9.8, 6.7 mM p-nitrophenyl phosphate, 2 mM MgCl2) and incubated at 37° C. for 30 minutes. The reaction was terminated by addition of 125 μl of 0.2 N NaOH, and absorbance was measured at 405 nm by using a microplate reader (Model 550, Bio-Rad Laboratories).
Further, the ALP activity in DMEM containing 2% FBS and DMEM or αMEM containing 2% FBS added with peptide (c) at various concentrations was also similarly examined. The symbol “cont” in FIG. 4 indicates the results for the cells cultured in DMEM containing 2% FBS alone, “PN” indicates the results for the cells cultured in the medium added only with the peptide (a), and “PC” indicates the results for the cells cultured in the medium added only with the peptide (c). In FIG. 4, “pg” and “ng” represent “pg/ml” and “ng/ml,” respectively.
Further, in addition to the peptide (a) (derived from swine), the human-derived peptide (b) and BMP were similarly examined. The results of ALP activity measurement performed when the cells reached a confluent state are shown in FIG. 5, and the results of ALP activity measurement performed one week after the confluent state was attained are shown in FIG. 6. The symbol “cont” in the figures indicates the results for the cells cultured in DMEM containing 2% FBS alone, “B” indicates the results for the cells cultured in the medium added only with BMP2, “PN” indicates the results for the cells cultured in the medium added only with the peptide (a), and “HN” indicates the results for the cells cultured in the medium added only with the peptide (b) In the figures, the unit of numerical values shown after “B,” “PN” and “HN” is “ng/ml.”

PDL cells [3] = assay: Calcification product forming ability of PDL cells (Dahl's calcium staining, alizarin red S); type: cell-based, human; settings: peptide at various concentrations, 10 mM sodium β-glycerophosphate, three weeks after confluent state
Description: The following experiment was performed to examine effect of the peptide on calcification product forming ability of cells.
To assess calcification ability of cells, Dahl's calcium staining was performed. The PDL cells were inoculated on a 24-well culture plate at a ratio of 5×10^3 cells/well, and cultured in 2S-containing DMEM added with the peptide (a) or (c) at various concentrations and adjusted by addition of 10 mM sodium β-glycerophosphate. Three weeks after the cells reached a confluent state, the cells were washed with PBS, fixed with neutrally buffered formalin and stained with alizarin red S (Wako Pure Chemical Industries).

NKAQQPQIKRDAWRF [(c)]
significantly increased: PDL cell number (cell growth promoting effect) [1] | ALP activity of the PDL cells (PDL cells [2]) | calcification ability of the PDL cells (PDL cells [3])
